Reference: patent US20190248834A1, “ENDOMORPHIN-2, TETRAPEPTIDE DERIVATIVES THEREOF, AND USES THEREOF” (priority 2016, published 2019)
Non-standard residues stand in square brackets, D forms with d. pGlu = O=C1CC[C@@H](C(=O)O)N1

How the values were obtained:
Assay type in all cases: in vivo, human
[1] = test system: very severe headaches with nausea and vomiting; test: Example 24: analgesic effect on severe headaches, topical
Description: A subject had very severe headaches and associated nausea and vomiting, which occurred 1-2 times weekly. […] Over this interval, the frequency of headaches decreased to every 7-10 days, and the intensity of pain at the onset of each episode was diminished.

[2] = test system: jaw pain after tooth extraction; test: Example 29: analgesic effect on dental extraction pain, topical
Description: A subject had substantial pain in the right maxillary jaw that started about 2 hours after extraction of a right maxillary tooth. […] Only negligible discomfort, perceived by touching the extraction site with the tongue, was detectable thereafter.

herpes zoster pain = test: Example 6: analgesic effect on viral infection, topical
Description: A subject had herpes zoster on a temporal branch of the tri-geminal nerve with severe clinical pain involving the areas of left temporal, left forehead, left scalp, left neck, and left ear canal. Touching the left anterior scalp hair provoked severe pain.
The subject topically administered an anhydrous composition containing 0.5% (w/v) N-Ac-Tyr-Pro-Phe-Phe-NH2 (SEQ ID NO: 23) in EP73, formulated as described in Example 2, by applying a few drops to wet the skin surface. […] The pain relief lasted for up to 1 hour. Multiple repeated topical applications of the anhydrous composition containing 0.5% (w/v) N-Ac-Tyr-Pro-Phe-Phe-NH2 (SEQ ID NO: 23) in EP73 gave the same analgesic result with 4+ relief of pain according to clinical evaluation, and also for longer periods of up to 6 hours.

[3] = test system: chronic arthritic pain of left ankle; test: Example 9: analgesic effect on ankle pain, topical
Description: A subject had chronic arthritic pain of their left ankle. They were previously treated with prescription corticosteroid injections.
The subject topically applied an anhydrous composition containing 0.5% (w/v) N-Ac-Tyr-Pro-Phe-Phe-NH2 (SEQ ID NO: 23) in EP73, formulated as described in Example 2, at bedtime. The next morning, they observed approximately 90% improvement of pain. The subject topically re-applied the same composition at bedtime. The following entire day, they had about 95% pain improvement.

[4] = test system: sub-acute pain of left wrist; test: Example 10: analgesic effect on wrist pain, topical
Description: A subject had sub-acute pain of their left wrist, which they twisted while lifting a child.
The subject topically applied an anhydrous composition containing 0.7% (w/v) N-Ac-Tyr-Pro-Phe-Phe-NH2 (SEQ ID NO: 23) in EP73, formulated as described in Example 2, before bedtime. The next morning, about 70% relief of pain was observed. The subject topically re-applied the same composition under plastic film wrap for 2 hours, and the wrist pain was completely eradicated. The subject was free of any wrist pain and the improvement was 100% as judged by clinical evaluation.

[5] = test system: psoriatic arthritis of the fingers; test: Example 79: analgesic effect on psoriatic arthritis, topical; conditions: 0.5% (w/v) in WEP442, topical once daily
Description: A subject, presented with psoriatic arthritis of the fingers that was particularly painful in the right index finger joint and proximal joint of the left thumb.

[6] = test system: psoriatic arthritis in the joints of both feet; test: Example 62: analgesic efficacy of psoriatic arthritis, feet, topical; conditions: 1% (w/v) in WEP442, topical
Description: A subject with plague psoriasis had painful psoriatic arthritis in the joints of both feet for the past 10-12 years. Topical application of a composition containing 1% (w/v) of N-Ac-Tyr-Pro-Phe-Phe-NH2 (SEQ ID NO: 23) in WEP442 relieved the pain so that it was undetectable for 6-8 hours. Daily topical applications of the formulation for 5 days provided the same relief.

[7] = test system: dental pain after filling; test: Example 27: analgesic effect on dental pain, applied to tooth and gum
Description: A subject, experienced substantial pain in an upper left retro-molar that started 3 hours after having a dental filling procedure done on the tooth. The pain became more intense over the ensuing hours, at which time they applied to the tooth and gum using a cotton tipped applicator a composition containing 1% (w/v) of N-Ac-Tyr-Pro-Phe-Phe-NH2 (SEQ ID NO: 23) in WEP442. […] Re-application of the composition provided the same relief for the same duration.

[8] = test system: severe osteoarthritis of both knees; test: Example 17: analgesic effect on osteoarthritic knees, sublingual powder; conditions: powder 50 mg under the tongue
Description: A subject had severe osteoarthritis of both knees with pain, inflammation and edema for four years. The subject underwent prior therapy, including intra-articular injections of corticosteroids and hyaluronic acid as well as celecoxib (Celebrex), administered orally (200 mg) twice daily. Such therapy provided only mild transitory relief of knee pain and edema, and edema of the lower legs.
The subject administered N-Pg-Tyr-Pro-Phe-Phe-NH2 (SEQ ID NO: 44) powder (50 mg) under the tongue (sublingually), which dissolved in saliva and absorbed slowly for about 30 minutes. […] The analgesic effect lasted for about 2 hours. The analgesic effect was judged to be about 4+ by clinical evaluation.
Under the same conditions, N-Pa-Tyr-Pro-Phe-Phe-NH2 (SEQ ID NO: 64) powder provided an analgesic effect of about 3+ as judged by clinical evaluation. Also under the same conditions, N-Ac-Tyr-Pro-Phe-Phe-NH2 (SEQ ID NO: 23) powder provided an analgesic effect of about 3+ as judged by clinical evaluation. Repeated application of the tetrapeptide derivatives provided 4+ efficacy as judged by clinical evaluation.

headache = test: Example 72: analgesic effect on migraine headache, topical; conditions: 0.5% (w/v) in WEP442, topical
Description: A subject who suffered from migraine headaches, woke up one morning with a headache, the type of which was uncertain. They topically applied to their forehead, periocular and temporal areas a composition containing 0.5% (w/v) of N-Pg-Tyr-Pro-Phe-Phe-NH2 (SEQ ID NO: 44) in WEP442.

[9] = 0.5% (w/v) in EP73, multiple repeated topical applications

In the case of `CC(=O)N[C@@H](Cc1ccc(O)cc1)C(=O)N1CCC[C@H]1C(=O)N[C@@H](Cc1ccccc1)C(=O)N[C@@H](Cc1ccccc1)C(N)=O` [N-Ac-Tyr-Pro-Phe-Phe-NH2], the “frequency of headaches (interval between headaches)” value ([1]; 1% (w/v) in WEP442, repeated uses over 3 months, before: 1-2 times weekly) is reported as 7 to 10 days, the “time to pain relief” value ([1]; 1% (w/v) in WEP442, topical) is reported as 3 to 4 min and the pain relief ([1]; 1% (w/v) in WEP442, topical at onset of symptoms) is reported as “completely relieve pain and any associated symptoms”. The “time to pain relief” value ([2]; 1% (w/v) in WEP442, topical) was no more than 1 min, the pain relief ([2]; 1% (w/v) in WEP442, topical to facial maxillary area) was “complete relief of pain” and the “duration of pain relief” value (herpes zoster pain; [9]) was “up to 6 hours”. For the same compound, the “relief of pain according to clinical evaluation” value (herpes zoster pain; [9]) was 4+ (4+ (90-100%): complete relief or eradication of pain for more than 4 hours), the pain relief (herpes zoster pain; 0.5% (w/v) in EP73, topical) was “pain disappeared completely” and the “time to pain relief” value (herpes zoster pain; 0.5% (w/v) in EP73, topical) was “Within about a minute”. The “duration of pain relief” value (herpes zoster pain; 0.5% (w/v) in EP73, topical, first application) was “up to 1 hour”, the pain improvement ([3]; 0.5% (w/v) in EP73, re-applied at bedtime, following entire day) was “about 95%” and the improvement of pain ([3]; 0.5% (w/v) in EP73, topical at bedtime, next morning) was “approximately 90%”. The “improvement by clinical evaluation” value ([4]; 0.7% (w/v) in EP73, re-applied under plastic film wrap for 2 hours) was 100%, the relief of pain ([4]; 0.7% (w/v) in EP73, topical before bedtime, next morning) was “about 70%” and the “duration of pain relief” value [5] was 8 h. For the same compound, the pain relief [5] was “complete relief of pain”, the “duration of pain relief” value [6] was 6 to 8 h and the pain relief [6] was “undetectable”. For the same compound, the “duration of pain relief” value ([7]; 1% (w/v) in WEP442) was “about 3 hours”, the “time to pain relief” value ([7]; 1% (w/v) in WEP442) was no more than 1 min and the pain relief ([7]; 1% (w/v) in WEP442, applied to tooth and gum) was “pain ceased completely”.
For “N-Pg-Tyr-Pro-Phe-Phe-NH2 ([pGlu]YPFF-NH2; SMILES NC(=O)[C@H](Cc1ccccc1)NC(=O)[C@H](Cc1ccccc1)NC(=O)[C@@H]1CCCN1C(=O)[C@H](Cc1ccc(O)cc1)NC(=O)[C@@H]1CCC(=O)N1)”, the “analgesic effect by clinical evaluation” value [8] was 4+ (4+ (90-100%): complete relief or eradication of pain for more than 4 hours), the “duration of analgesic effect” value [8] was “about 2 hours” and the pain relief [8] was “the pain disappeared”. For the same compound, the “time to pain relief” value [8] was no more than 20 min and the headache relief (headache) was “promptly relieved and did not return”.
